Laboratory results published in paper PMC9102066, “Cloning and Functional Characterization of Dog OCT1 and OCT2: Another Step in Exploring Species Differences in Organic Cation Transporters” (International Journal of Molecular Sciences, 2022).
Counter-ions that a name gives are not always drawn. Like-named read-outs stand apart in the source and are kept apart here.

Columns and labels:
dog OCT1 = assay: Uptake in HEK293 cells stably overexpressing dog OCT1; settings: for vmax ± SEM, dOCT1: OCT1-mediated uptake, HEK293, 2 min, 37 °C, pH 7.4, control cells subtracted; for fold higher transport capacity by dog than mouse OCT1 / fold lower affinity by dog than mouse OCT1: dog OCT1 versus mouse OCT1; for Km at 2 min: dog; for CLint ± SEM, dOCT1: intrinsic clearance = vmax divided by KM for each experiment
Description: The total uptake is shown for the overexpressing and control cells (left hand side). OCT1-mediated uptake (right hand side) was calculated by subtracting the uptake of control cells (pcDNA5) from the uptake of OCT1-overexpressing cells. The means and standard errors of the means are shown for at least three independent experiments.
For generation and characterization, see the Supplementary Methods, Figure S7, and [29, 47]. Cells were cultured in Dulbecco’s Modified Eagle’s Medium (DMEM) supplemented with 10% FBS, 100 U/mL penicillin, and 100 µg/mL streptomycin at 37 °C and 5% CO2. Cells were passaged twice a week.
At 48 h prior to the experiment, 6 × 10^5 cells were seeded per well in 12-well plates pre-coated with poly-D-lysine.
Cellular uptake experiments were performed at 37 °C and pH 7.4 using Hanks’ Buffered Salt Solution (HBSS) supplemented with 10 mM HEPES (referred to as HBSS+ in the following). Cells were washed with 1 mL pre-warmed (37 °C) HBSS+ and uptake was initiated by adding 400 µL of pre-warmed HBSS+ containing the substrate. Uptake was allowed for exactly 2 min and stopped by adding 2 mL ice-cold HBSS+. Cells were washed twice with 2 mL ice-cold HBSS+ then lysed with 80% acetonitrile supplemented with internal standard. The intracellularly accumulated substrate concentrations were measured using LC-MS/MS as described in the following and normalized to the amount of total protein in the samples as measured using the bicinchoninic acid assay.
Intracellular substrate concentrations were quantified using LC-MS/MS. […] The pellet was reconstituted with 200 µL 0.1% formic acid and between 5 and 10 µL was injected into the LC-MS/MS system (Table S2).
An API4000 QTRAP tandem mass spectrometer with ESI interface (AB SCIEX, Darmstadt, Germany) coupled to a Shimadzu Nexera X2 UHPLC system with LC 30AD pumps and SiL 30AC autosampler (Shimadzu, Duisburg, Germany) was used for analysis.
Intrinsic clearance CLint was calculated by dividing vmax by KM for each experiment. Kinetic parameters were compared between OCT1 orthologs using an ANOVA followed by Tukey’s honestly significant difference post hoc comparisons in SPSS Statistics version 28 (SPSS Inc., IBM, Chicago, IL, USA).

human OCT1 = molecular target: T1, human OCT1 (Homo sapiens, UniProt O15245); assay: Uptake in HEK293 cells stably overexpressing human OCT1; format: in vitro ADME; settings: for CLint ± SEM, hOCT1: intrinsic clearance = vmax divided by KM for each experiment
T1 construct: expressed in transfected cells; host or cells: HEK293 (Flp-In system)
T1 sequence (O15245 1-554): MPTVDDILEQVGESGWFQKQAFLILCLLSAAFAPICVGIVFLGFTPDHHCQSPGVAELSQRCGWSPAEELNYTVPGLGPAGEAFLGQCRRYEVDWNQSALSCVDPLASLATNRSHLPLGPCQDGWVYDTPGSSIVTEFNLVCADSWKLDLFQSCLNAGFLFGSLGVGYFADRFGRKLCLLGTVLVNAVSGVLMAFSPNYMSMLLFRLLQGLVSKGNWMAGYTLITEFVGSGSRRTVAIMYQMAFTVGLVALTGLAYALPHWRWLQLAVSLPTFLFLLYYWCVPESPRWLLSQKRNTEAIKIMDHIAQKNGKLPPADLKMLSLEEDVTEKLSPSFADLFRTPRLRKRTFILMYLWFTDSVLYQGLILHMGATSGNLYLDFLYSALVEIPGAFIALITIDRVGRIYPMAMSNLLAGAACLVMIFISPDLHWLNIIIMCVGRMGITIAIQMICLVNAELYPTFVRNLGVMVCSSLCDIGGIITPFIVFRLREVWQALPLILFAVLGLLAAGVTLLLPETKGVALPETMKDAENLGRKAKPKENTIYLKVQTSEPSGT
Excerpt: (§1) Cells were passaged twice a week.
(§2) Intracellular substrate concentrations were quantified using LC-MS/MS.

mouse OCT1 = molecular target: T2, mouse OCT1 (Mus musculus, UniProt O08966); assay: Uptake in HEK293 cells stably overexpressing mouse OCT1; format: in vitro ADME; settings: intrinsic clearance = vmax divided by KM for each experiment
T2 construct: expressed in transfected cells; host or cells: HEK293 (Flp-In system)
T2 sequence (O08966 1-556): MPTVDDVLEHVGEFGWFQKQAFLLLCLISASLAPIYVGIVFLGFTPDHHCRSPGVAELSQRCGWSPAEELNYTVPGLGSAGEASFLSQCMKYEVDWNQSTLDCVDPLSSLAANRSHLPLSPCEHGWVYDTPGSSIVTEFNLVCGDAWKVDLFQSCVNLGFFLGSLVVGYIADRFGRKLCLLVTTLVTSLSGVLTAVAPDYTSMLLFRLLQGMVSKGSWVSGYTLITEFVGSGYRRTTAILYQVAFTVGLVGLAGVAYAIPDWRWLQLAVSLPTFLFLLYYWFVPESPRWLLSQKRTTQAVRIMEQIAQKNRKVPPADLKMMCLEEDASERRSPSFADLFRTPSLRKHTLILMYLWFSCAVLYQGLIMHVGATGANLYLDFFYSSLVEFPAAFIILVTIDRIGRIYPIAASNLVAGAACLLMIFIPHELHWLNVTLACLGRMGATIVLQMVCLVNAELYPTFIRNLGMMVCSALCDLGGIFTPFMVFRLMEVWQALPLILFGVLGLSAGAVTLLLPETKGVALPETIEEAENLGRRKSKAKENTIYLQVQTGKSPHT
Excerpt: as §1, §2

dog OCT2 = assay: Uptake in HEK293 cells stably overexpressing dog OCT2; format: in vitro ADME; settings: for vmax ± SEM, dOCT2 / Km at 2 min: OCT2-mediated uptake, HEK293, 2 min; for vmax ± SEM, dOCT2: 37 °C, pH 7.4, control cells subtracted; for Km at 2 min: dog, Michaelis–Menten fit, read-out: KM ± SEM, dOCT2; for CLint ± SEM, dOCT2: intrinsic clearance = vmax divided by KM for each experiment
Excerpt: as §1, §2

human OCT2 = molecular target: T3, human OCT2 (Homo sapiens, UniProt O15244); assay: Uptake in HEK293 cells stably overexpressing human OCT2; format: in vitro ADME; settings: for CLint ± SEM, hOCT2: intrinsic clearance = vmax divided by KM for each experiment
T3 construct: expressed in transfected cells; host or cells: HEK293 (Flp-In system)
T3 sequence (O15244 1-555): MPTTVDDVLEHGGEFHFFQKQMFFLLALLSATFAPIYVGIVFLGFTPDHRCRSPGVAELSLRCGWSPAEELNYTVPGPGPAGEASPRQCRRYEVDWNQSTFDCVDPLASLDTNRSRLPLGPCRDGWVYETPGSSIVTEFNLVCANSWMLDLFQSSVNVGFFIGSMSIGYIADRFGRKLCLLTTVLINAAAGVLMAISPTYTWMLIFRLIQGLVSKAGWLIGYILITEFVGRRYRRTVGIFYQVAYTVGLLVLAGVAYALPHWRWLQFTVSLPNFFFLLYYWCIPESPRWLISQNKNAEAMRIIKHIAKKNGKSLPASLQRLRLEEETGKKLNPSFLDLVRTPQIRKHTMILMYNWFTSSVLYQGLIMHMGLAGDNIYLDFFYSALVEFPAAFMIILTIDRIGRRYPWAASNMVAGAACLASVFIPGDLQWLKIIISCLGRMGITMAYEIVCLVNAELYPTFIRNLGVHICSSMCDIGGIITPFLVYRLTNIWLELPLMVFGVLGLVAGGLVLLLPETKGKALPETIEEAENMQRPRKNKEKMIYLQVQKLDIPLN
Excerpt: as §1, §2

[1] = HEK293 cells stably overexpressing dog OCT1, pH 7.4

SMILES	vmax ± SEM, dOCT1 (dog OCT1)	fold higher transport capacity by dog than mouse OCT1 (dog OCT1)	fold lower affinity by dog than mouse OCT1 (dog OCT1)	Km at 2 min (dog OCT1; [1])	CLint ± SEM, dOCT1 (dog OCT1)	CLint ± SEM, hOCT1 (human OCT1)	CLint ± SEM, mOCT1 (mouse OCT1)	CLint ± SEM, hOCT2 (human OCT2)	Km at 2 min (dog OCT1; pH 7.4)	vmax ± SEM, dOCT2 (dog OCT2)	CLint ± SEM, dOCT2 (dog OCT2)	also measured
CCCC[N+]1(C)[C@@H]2C[C@@H](OC(=O)[C@H](CO)c3ccccc3)C[C@H]1[C@@H]1O[C@@H]12 (stereo partly shown) [Butylscopolamine, butylscopolamine bromide]	1383 ± 112 pmol × min^−1 × mg Protein^−1	1.8 fold	2.9 fold	18.7 ± 3.32 µM	80.5 ± 12.3 µL × min^−1 × mg Protein^−1	84.4 ± 6.76 µL × min^−1 × mg Protein^−1	131 ± 25.6 µL × min^−1 × mg Protein^−1	81.6 ± 2.16 µL × min^−1 × mg Protein^−1	–	–	–	difference in uptake kinetics between dog and human OCT1, in words (dog OCT1; dog OCT1 versus human OCT1): no significant differences; CLint ± SEM, dOCT1 (dog OCT1; listed as butylscopolamine): 122 µL × min^−1 × mg Protein^−1; fold lower transport by dog OCT2 compared to human OCT2 (dog OCT2; dog OCT2 versus human OCT2): 10 fold; uptake by dog OCT2 cells compared to control cells, in words (dog OCT2; especially at low concentrations, data could not be fitted to the Michaelis–Menten equation): only a slight increase
CC(Cc1ccc(O)cc1)NCC(O)c1cc(O)cc(O)c1 (stereo not shown) [Fenoterol, Fenoterol hydrochloride]	–	–	–	–	80.7 ± 7.76 µL × min^−1 × mg Protein^−1	88.3 ± 3.85 µL × min^−1 × mg Protein^−1	88.5 ± 15.5 µL × min^−1 × mg Protein^−1	28.0 ± 0.95 µL × min^−1 × mg Protein^−1	16.8 ± 1.09 µM	–	–	fold lower affinity (higher KM) by dog OCT1 than human OCT1 (dog OCT1; dog OCT1 versus human OCT1): 14.3 fold; CLint ± SEM, dOCT1 (dog OCT1; listed as fenoterol): 80.7 µL × min^−1 × mg Protein^−1; fold higher affinity (human OCT1 relative to dog OCT1, as worded in the discussion) (human OCT1; discussion wording, direction not spelled out): 14.3 fold; CLint ± SEM, hOCT1 (human OCT1; listed as fenoterol): 88.3 µL × min^−1 × mg Protein^−1; CLint ± SEM, mOCT1 (mouse OCT1; listed as fenoterol): 88.5 µL × min^−1 × mg Protein^−1
CN(C)C(=N)N=C(N)N [Metformin, metformin hydrochloride]	11,373 ± 714 pmol × min^−1 × mg Protein^−1	–	–	204 ± 41.8 µM	63.1 ± 12.0 µL × min^−1 × mg Protein^−1	–	38.7 ± 6.23 µL × min^−1 × mg Protein^−1	39.9 ± 5.27 µL × min^−1 × mg Protein^−1	–	21,578 ± 606 pmol × min^−1 × mg Protein^−1	59.2 ± 2.76 µL × min^−1 × mg Protein^−1	vmax ± SEM, hOCT1 (human OCT1; OCT1-mediated uptake, HEK293, 2 min, 37 °C, pH 7.4, control cells subtracted): 10,465 ± 1306 pmol × min^−1 × mg Protein^−1; Km at 2 min (human OCT1; human, HEK293 cells stably overexpressing human OCT1, pH 7.4, OCT1-mediated uptake, HEK293, 2 min, Michaelis–Menten fit, read-out: KM ± SEM, hOCT1): 1090 ± 297 µM; Km at 2 min (dog OCT2; HEK293 cells stably overexpressing dog OCT2, pH 7.4): 365 ± 11.5 µM; vmax ± SEM, hOCT2 (human OCT2; OCT2-mediated uptake, HEK293, 2 min, 37 °C, pH 7.4, control cells subtracted): 29,650 ± 1457 pmol × min^−1 × mg Protein^−1; Km at 2 min (human OCT2; human, HEK293 cells stably overexpressing human OCT2, pH 7.4, OCT2-mediated uptake, HEK293, 2 min, Michaelis–Menten fit, read-out: KM ± SEM, hOCT2): 766 ± 95.4 µM
O=C(O[C@H]1C[C@H]2CC[C@@H](C1)[N+]21CCCC1)C(O)(c1ccccc1)c1ccccc1 [Trospium, trospium chloride]	835 ± 64.9 pmol × min^−1 × mg Protein^−1	3.4 fold	4.4 fold	–	146 ± 10.3 µL × min^−1 × mg Protein^−1	117 ± 12.7 µL × min^−1 × mg Protein^−1	180 ± 37.5 µL × min^−1 × mg Protein^−1	278 ± 40.5 µL × min^−1 × mg Protein^−1	5.72 ± 0.3 µM	224 ± 14.6 pmol × min^−1 × mg Protein^−1	106 ± 8.78 µL × min^−1 × mg Protein^−1	fold lower affinity by dog OCT2 than human OCT2 (dog OCT2; dog OCT2 versus human OCT2): 5.7 fold; Km at 2 min (dog OCT2; pH 7.4): 2.18 ± 0.27 µM
